Patent publication US5486541A (Teva Pharmaceutical Industries, Ltd., priority 1991, dated 1996)

What was measured:
[1] = target: T1, MAO-B (Rattus norvegicus, UniProt P19643); test: biochemical; assay type: biochemical; details: rat brain homogenate; for IC50: 20 min preincubation at 37° C., PEA 20 μM, read-out: IC50 for Inhibition of MAO-B in Brain Homogenates; for Selectivity MAO-A/MAO-B (in vitro IC50): ratio IC50 MAO-A / IC50 MAO-B
T1 sequence (P19643 1-520): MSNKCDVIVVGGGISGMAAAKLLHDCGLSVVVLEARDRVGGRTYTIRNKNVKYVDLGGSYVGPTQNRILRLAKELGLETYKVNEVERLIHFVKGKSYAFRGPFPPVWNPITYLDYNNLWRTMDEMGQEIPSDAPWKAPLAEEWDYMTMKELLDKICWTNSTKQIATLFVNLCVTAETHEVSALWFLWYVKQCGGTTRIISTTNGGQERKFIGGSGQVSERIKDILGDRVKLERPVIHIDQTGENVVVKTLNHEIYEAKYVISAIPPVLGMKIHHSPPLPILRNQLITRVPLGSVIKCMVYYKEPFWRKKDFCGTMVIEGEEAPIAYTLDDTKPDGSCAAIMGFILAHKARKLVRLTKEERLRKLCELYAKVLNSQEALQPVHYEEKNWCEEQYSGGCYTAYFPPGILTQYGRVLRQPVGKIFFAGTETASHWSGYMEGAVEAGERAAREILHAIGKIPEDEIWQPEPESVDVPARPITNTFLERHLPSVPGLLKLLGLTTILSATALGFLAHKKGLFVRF

[2] = target: T2, MAO-A (Rattus norvegicus, UniProt P21396); test: biochemical; details: rat brain homogenate; 20 min preincubation at 37° C.; 5-HT 1 mM; read-out: IC50 for Inhibition of MAO-A in Brain Homogenates
T2 sequence (P21396 1-526): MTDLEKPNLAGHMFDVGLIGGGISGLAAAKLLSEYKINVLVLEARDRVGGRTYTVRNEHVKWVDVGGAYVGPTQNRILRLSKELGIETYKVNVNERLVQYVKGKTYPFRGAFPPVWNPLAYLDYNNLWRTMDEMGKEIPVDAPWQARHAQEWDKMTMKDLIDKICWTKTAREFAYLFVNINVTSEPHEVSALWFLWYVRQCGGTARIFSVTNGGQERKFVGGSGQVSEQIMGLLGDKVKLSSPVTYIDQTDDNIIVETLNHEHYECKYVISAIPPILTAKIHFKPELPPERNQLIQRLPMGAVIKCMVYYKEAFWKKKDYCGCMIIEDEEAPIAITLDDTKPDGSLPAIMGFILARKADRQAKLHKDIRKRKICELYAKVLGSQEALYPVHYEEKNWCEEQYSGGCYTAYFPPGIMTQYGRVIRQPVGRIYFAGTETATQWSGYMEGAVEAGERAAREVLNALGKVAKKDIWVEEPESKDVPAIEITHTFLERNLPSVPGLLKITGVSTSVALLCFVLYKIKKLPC

[3] = system: MAO-B; test: Inhibition of MAO Activity Ex-vivo: Acute Treatment, brain, MAO-B; assay type: in vivo, rat (male Sprague-Dawley derived); details: for ED-50 BRAIN MAO-B: rat, ip or po, 2 hours after dosing; for BRAIN MAO-A/MAO-B (measure of selectivity): ratio of ED-50 values, rat brain, ex vivo
[4] = system: MAO-A; test: Inhibition of MAO Activity Ex-vivo: Acute Treatment, brain, MAO-A; assay type: in vivo, rat (male Sprague-Dawley derived); details: rat, ip or po, 2 hours after dosing
[5] = system: MAO-B; test: Inhibition of MAO Activity Ex-vivo: Acute Treatment, liver, MAO-B; assay type: in vivo, rat (male Sprague-Dawley derived); details: for ED-50 LIVER MAO-B: rat, ip or po, 2 hours after dosing; for LIVER MAO-A/MAO-B (measure of selectivity): ratio of ED-50 values, rat liver, ex vivo
Method: (§1) These experiments were performed essentially according to the protocol of K. F. Tipton and M. B. H. Youdim in CIBA Symposium No. 39, Editors: G. E. W. Wolstenholme and J. Knight, Elsevier, Amsterdam, 1976, pp. 393-403. The MAO enzyme source was a homogenate of rat brain in 0.3M sucrose which was centrifuged at 600 g for 15 minutes. The supernatant was diluted appropriately in 0.05M phosphate buffer and preincubated with serial dilutions of compounds of interest which are listed below for 20 minutes at 37° C. ^14 C-labeled substrates (2-phenylethylamine, hereinafter PEA; 5-hydroxytryptamine, hereinafter 5-HT) were then added and the incubation continued for a further 20 minutes (PEA) or 30-45 minutes (5-HT). Substrate concentrations used were 20 μM (PEA) or 1 mM (5-HT). In the case of PEA the enzyme concentration was chosen so that not more than 10% of the substrate was metabolized during the course of the reaction. The reaction was then stopped by the addition of tranylcypromine (to final concentration of 1 mM) and the incubate filtered over a small column of Amberlite CG-50; buffered to pH 6.3. The column was washed with 1.5 ml water, the eluates pooled and the radioactive content determined by liquid scintillation spectrometry. Since the amine substrates are totally retained on the column, radioactivity in the eluate indicates the production of neutral and acidic metabolites formed as a result of MAO activity. Activity of MAO in the sample was expressed as a percentage of control activity in the absence of inhibitors after subtraction of appropriate blank values. The activity determined using PEA as a substrate is referred to as MAO B activity, and that determined using 5-HT as a substrate is referred to as MAO A activity.
(§2) Rats (male Sprague-Dawley derived) weighing 250±20 g were treated with the desired compound by intraperitoneal injection (ip) or oral gavage (po) and decapitated 2 hours later. Groups of three rats were used for each dose level of the compound and MAO activity was determined in the brain and liver using the general technique described above. The amount of protein in each incubation was determined using the Folin-Lowry method, and enzyme activity was calculated as nmol substrate metabolized per hour incubation for each mg protein. Activity of MAO in tissues from animals treated with inhibitors was expressed as a percentage of the enzyme activity in a group of control animals which were administered the vehicle alone (water in the case of oral gavage, or 0.9% saline in the case of intraperitoneal injection) and killed as above.

[6] = system: MAO-A; test: Inhibition of MAO Activity Ex-vivo: Acute Treatment, liver, MAO-A; assay type: in vivo, rat (male Sprague-Dawley derived); details: rat, ip or po, 2 hours after dosing
Method: as §1, §2

[7] = system: blood pressure response to tyramine; test: Tyramine Potentiation in Vivo (blood pressure response to tyramine); design: species or system rat; details: compound 5 mg/kg orally; tyramine 20 mg/kg orally; ratio of areas under the curve of blood pressure
Method: On the previous day a tail artery cannulation was performed to enable direct blood pressure measurements. On the experimental day the cannulae were connected to pressure transducers. The animals were unrestrained and were kept in a glass sided open top tank during the pressure measurements. […] The desired compound was administered 30 minutes after the last dose of tyramine. Tyramine was administered again, in increasing doses, as described above, one hour after the desired compound was administered. […] The tyramine potentiating effect was calculated as a ratio between the areas under the curve of blood pressure measured with tyramine alone (20 mg/kg) and that measured after administration of the desired compounds and tyramine.

Row | SMILES | IC50 [1] [nM] | Selectivity MAO-A/MAO-B (in vitro IC50) [1] | IC50 [2] [nM] | ED-50 BRAIN MAO-B [3] [mg/kg] | BRAIN MAO-A/MAO-B (measure of selectivity) [3] | ED-50 BRAIN MAO-A [4] [mg/kg] | ED-50 LIVER MAO-B [5] [mg/kg] | LIVER MAO-A/MAO-B (measure of selectivity) [5] | ED-50 LIVER MAO-A [6] [mg/kg] | Potentiation of blood pressure response to tyramine [7] [fold] | Selectivity MAO-A/MAO-B (in vitro IC50) ([1]; hydrochloride) | ED-50 BRAIN MAO-B ([3]; hydrochloride, 120 min) [mg/kg] | BRAIN MAO-A/MAO-B (measure of selectivity) ([3]; hydrochloride) | ED-50 BRAIN MAO-A ([4]; hydrochloride, 120 min) [mg/kg] | ED-50 LIVER MAO-B ([5]; hydrochloride, 120 min) [mg/kg]
1 | C#CCNC1CCc2c(F)cccc21.Cl (single isomer, unassigned; (+)) [(+)-4-F, (+)-4-Fluoro-N-propargyl-1-aminoindan hydrochloride] | 5.2 | 65 | 340 | 0.33 | > 3 | > 1.0 | 0.17 | > 5.9 | > 1.0 | 1.55 | – | – | – | – | –
2 | C#CCNC1CCc2c(F)cccc21.Cl (stereo not drawn) [Example 4-F, 4-Fluoro-N-propargyl-1-aminoindan hydrochloride] | 5.8 | 86 | 500 | 0.22 | 6 | 1.4 | 0.13 | 18.5 | 2.4 | – | – | – | – | – | –
3 | C#CCNC1CCc2ccc(Cl)cc21.Cl (stereo not drawn) [Example 6-Cl, 6-Chloro-N-propargyl-1-aminoindan hydrochloride] | 7.7 | 896 | 6900 | 1.7 | 5.8 | 10 | – | – | – | – | – | – | – | – | –
4 | C#CCNC1CCc2cc(F)ccc21.Cl (stereo not drawn) [Example 5-F, 5-Fluoro-N-propargyl-1-aminoindan hydrochloride] | 6 | 116 | 700 | 0.4 | 6 | 2.3 | 0.06 | 36.7 | 2.2 | – | – | – | – | – | –
5 | C#CCNC1CCc2ccccc21 (stereo not drawn) [H, N-propargyl-1-aminoindan, reference compound] | – | – | – | 0.07 | – | 1.2 | 0.06 | – | 5 | – | – | – | – | – | –
6 | C#CCNC1CCc2ccc(F)cc21.Cl (single isomer, unassigned; (-)) [(-)-6-F, (-)-6-Fluoro-N-propargyl-1-aminoindan hydrochloride] | 12000 | – | 40000 | – | – | – | – | – | – | – | 3 | 0.45 | 51 | 23 | < 0.5
